Consider 23 molecules from PubChem BioAssay AID248 (DTP/NCI, 2004).

Toxic doses and inconclusive results are not listed.

The subject of this assay is L1210 leukemia ip in BDF1 mice, survival T/C. Briefly: NCI In Vivo Anticancer Drug Screen. Data for tumor model L1210 Leukemia (intraperitoneal) in B6D2F1 (BDF1) mice. The following applies: endpoint: mean survival time, higher = longer survival. The gist of the method: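 Transplanted-tumor mice were given test agent; controls received vehicle only. Survival readings from the two groups were divided (treated over control).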

Setting [1] is: dose: 100.0 mg/kg/injection, schedule: Q04DX003 (ip), vehicle: saline.
Where [2] appears, read: dose: 200.0 mg/kg/injection, schedule: Q04DX003 (ip), vehicle: saline.
Where [3] appears, read: dose: 400.0 mg/kg/injection, schedule: Q04DX003 (ip), vehicle: saline.
The mark [4] stands for this setting: dose: 100.0 mg/kg/injection, schedule: Q01DX001 (ip), vehicle: saline.
[5] abbreviates: dose: 200.0 mg/kg/injection, schedule: Q01DX001 (ip), vehicle: saline.
Where [6] appears, read: dose: 400.0 mg/kg/injection, schedule: Q01DX001 (ip), vehicle: saline.
Where [7] appears, read: dose: 100.0 mg/kg/injection, schedule: Q04DX002 (ip), vehicle: Klucel (hydroxypropylcellulose) (HPC).
[8] abbreviates: dose: 200.0 mg/kg/injection, schedule: Q04DX002 (ip), vehicle: Klucel (hydroxypropylcellulose) (HPC).
The mark [9] stands for this setting: dose: 400.0 mg/kg/injection, schedule: Q04DX002 (ip), vehicle: Klucel (hydroxypropylcellulose) (HPC).
[10] abbreviates: dose: 50.0 mg/kg/injection, schedule: Q01DX009 (ip), vehicle: Klucel (hydroxypropylcellulose) (HPC).
The mark [11] stands for this setting: dose: 100.0 mg/kg/injection, schedule: Q01DX009 (ip), vehicle: Klucel (hydroxypropylcellulose) (HPC).
[12] abbreviates: dose: 200.0 mg/kg/injection, schedule: Q01DX009 (ip), vehicle: Klucel (hydroxypropylcellulose) (HPC).
The mark [13] stands for this setting: dose: 50.0 mg/kg/injection, schedule: Q04DX003 (ip), vehicle: Klucel (hydroxypropylcellulose) (HPC).
Setting [14] is: dose: 100.0 mg/kg/injection, schedule: Q04DX003 (ip), vehicle: Klucel (hydroxypropylcellulose) (HPC).
Setting [15] is: dose: 200.0 mg/kg/injection, schedule: Q04DX003 (ip), vehicle: Klucel (hydroxypropylcellulose) (HPC).
[16] abbreviates: dose: 400.0 mg/kg/injection, schedule: Q04DX003 (ip), vehicle: Klucel (hydroxypropylcellulose) (HPC).
Where [17] appears, read: dose: 75.0 mg/kg/injection, schedule: Q01DX001 (ip), vehicle: saline.
Setting [18] is: dose: 150.0 mg/kg/injection, schedule: Q01DX001 (ip), vehicle: saline.
Setting [19] is: dose: 100.0 mg/kg/injection, schedule: Q01DX009 (ip), vehicle: saline.
Where [20] appears, read: dose: 200.0 mg/kg/injection, schedule: Q01DX009 (ip), vehicle: saline.
[21] abbreviates: dose: 12.5 mg/kg/injection, schedule: Q01DX009 (ip), vehicle: Klucel (hydroxypropylcellulose) (HPC).
Where [22] appears, read: dose: 25.0 mg/kg/injection, schedule: Q01DX009 (ip), vehicle: Klucel (hydroxypropylcellulose) (HPC).
[23] abbreviates: dose: 50.0 mg/kg/injection, schedule: Q01DX001 (ip), vehicle: carboxymethylcellulose (CMC).
The mark [24] stands for this setting: dose: 100.0 mg/kg/injection, schedule: Q01DX001 (ip), vehicle: carboxymethylcellulose (CMC).
Setting [25] is: dose: 200.0 mg/kg/injection, schedule: Q01DX001 (ip), vehicle: carboxymethylcellulose (CMC).

In the case of `O=C1NC2CC=CCC12` (stereo not given), the T/C is 91 % of control (dose: 100.0 mg/kg/injection, schedule: Q01DX009 (ip), vehicle: saline with Tween-80); 101 % of control under setting [1]; 89 % of control (dose: 200.0 mg/kg/injection, schedule: Q01DX009 (ip), vehicle: saline with Tween-80); 101 % of control under setting [2]; 89 % of control (dose: 400.0 mg/kg/injection, schedule: Q01DX009 (ip), vehicle: saline with Tween-80); 94 % of control under setting [3].

With `COCCOC(N)=O`, the T/C is 105 % of control under setting [4], 115 % of control under setting [5] and 95 % of control under setting [6].

As for `CC(C)(C)C(=O)NO`, the T/C by setting is: under setting [7], 110 % of control; under setting [8], 90 % of control; under setting [9], 102 % of control.

As for `COc1ccc([N+](=O)[O-])cc1NC(=O)N(c1ccccc1)C(C)C`, the T/C runs as follows: under setting [10], 101 % of control; under setting [11], 107 % of control; under setting [12], 86 % of control.

Turning to `OC(c1ccccc1)c1ccccn1` (stereo not given), the T/C under setting [1] is 92 % of control, the T/C under setting [2] was 115 % of control and the T/C under setting [3] is 101 % of control.

In the case of `Cc1cc(N(CCCl)CCCl)ccc1C=Nc1cc(Cl)ccc1-n1ccnc1C`, the T/C runs as follows: under setting [13], 98 % of control; under setting [14], 98 % of control; under setting [15], 101 % of control; under setting [16], 90 % of control.

As to `CNc1ccccc1CO`, the T/C is 95 % of control (dose: 100.0 mg/kg/injection, schedule: Q04DX003 (ip), vehicle: other); 104 % of control (dose: 200.0 mg/kg/injection, schedule: Q04DX003 (ip), vehicle: other); 107 % of control (dose: 400.0 mg/kg/injection, schedule: Q04DX003 (ip), vehicle: other).

Take `CCCCCC(C)(C1=NC(C)(C)CC(C)O1)c1ccccc1` (stereo not given): the T/C (dose: 100.0 mg/kg/injection, schedule: Q01DX009 (ip), vehicle: saline sonified) is 93 % of control; the T/C (dose: 200.0 mg/kg/injection, schedule: Q01DX009 (ip), vehicle: saline sonified) was 104 % of control; the T/C (dose: 400.0 mg/kg/injection, schedule: Q01DX009 (ip), vehicle: saline sonified) was 93 % of control.

In the case of `BrC1C=CC=CN1C/C=C/CN1C=CC=CC1Br` (stereo not given), the T/C by setting is: under setting [17], 96 % of control; under setting [18], 97 % of control.

Regarding `Cn1c(=O)c2c(ncn2CN2CCOCC2)n(C)c1=O`, the T/C was 100 % of control under setting [17] and 100 % of control under setting [18].

Take `COc1cc(C)ccc1-c1c(C(=O)O)cccc1[N+](=O)[O-]`: the T/C is, setting by setting: under setting [14], 93 % of control; under setting [15], 95 % of control; under setting [16], 90 % of control.

For the molecule `Cc1c(C(=O)Nc2ccc(C3=NCCN3)cc2)cccc1C(=O)Nc1ccc(C2=NCCN2)cc1`, the T/C is 104 % of control (dose: 42.0 mg/kg/injection, schedule: Q01DX Z (ip), vehicle: carboxymethylcellulose (CMC)) and 104 % of control (dose: 85.0 mg/kg/injection, schedule: Q01DX Z (ip), vehicle: carboxymethylcellulose (CMC)).

In the case of `CNc1ccc(C(=O)O)cc1`, the T/C (dose: 50.0 mg/kg/injection, schedule: Q01DX009 (ip), vehicle: saline) is 102 % of control; the T/C under setting [19] was 109 % of control; the T/C under setting [20] was 106 % of control.

Consider `CN(C)CCCC1C2CCC(C2)C1C#N` (stereo not given), for which the T/C is 104 % of control under setting [21]; 95 % of control under setting [22]; 96 % of control (dose: 25.0 mg/kg/injection, schedule: Q04DX003 (ip), vehicle: Klucel (hydroxypropylcellulose) (HPC)); 104 % of control under setting [10]; 93 % of control under setting [13].

For the molecule `CCCCCCCC(=O)NC1CCC(C(C)(C)C)CC1` (stereo not given), the T/C runs as follows: (dose: 100.0 mg/kg/injection, schedule: Q01DX009 (ip), vehicle: other) 100 % of control; (dose: 200.0 mg/kg/injection, schedule: Q01DX009 (ip), vehicle: other) 97 % of control; (dose: 400.0 mg/kg/injection, schedule: Q01DX009 (ip), vehicle: other) 106 % of control.

As for `O=[N+]([O-])c1cc(Cl)cc(Cl)c1O`, the T/C reads like this: under setting [21], 91 % of control; (dose: 12.5 mg/kg/injection, schedule: Q04DX002 (ip), vehicle: Klucel (hydroxypropylcellulose) (HPC)) 90 % of control; under setting [22], 94 % of control; (dose: 25.0 mg/kg/injection, schedule: Q04DX002 (ip), vehicle: Klucel (hydroxypropylcellulose) (HPC)) 97 % of control; (dose: 50.0 mg/kg/injection, schedule: Q04DX002 (ip), vehicle: Klucel (hydroxypropylcellulose) (HPC)) 94 % of control.

`CCOc1nc(Cl)nc2nc[nH]c12`: the T/C under setting [4] is 102 % of control, the T/C under setting [5] is 102 % of control and the T/C under setting [6] was 96 % of control.

On to `CCCCC(C#N)(C(=O)OCC)C(C)(C)C` (stereo not given), for which the T/C under setting [19] is 105 % of control; the T/C under setting [1] was 96 % of control; the T/C under setting [20] was 92 % of control; the T/C under setting [2] is 97 % of control; the T/C (dose: 400.0 mg/kg/injection, schedule: Q01DX009 (ip), vehicle: saline) is 101 % of control; the T/C under setting [3] is 96 % of control.

For `Nc1cc([N+](=O)[O-])cc([N+](=O)[O-])c1`, the T/C is, setting by setting: under setting [23], 109 % of control; under setting [24], 118 % of control; under setting [25], 113 % of control.

As for `COc1ccc(C(=O)CC(Sc2ccccc2N)c2ccc(OC)cc2)cc1` (stereo not given), the T/C was 87 % of control under setting [11]; 98 % of control under setting [7]; 91 % of control under setting [12]; 95 % of control under setting [8]; 87 % of control (dose: 400.0 mg/kg/injection, schedule: Q01DX009 (ip), vehicle: Klucel (hydroxypropylcellulose) (HPC)); 113 % of control under setting [9].

Consider `COCCN=Cc1ccc(N(C)C)cc1`, for which the T/C is, setting by setting: (dose: 100.0 mg/kg/injection, schedule: Q04DX002 (ip), vehicle: saline with Tween-80) 103 % of control; (dose: 200.0 mg/kg/injection, schedule: Q04DX002 (ip), vehicle: saline with Tween-80) 100 % of control; (dose: 400.0 mg/kg/injection, schedule: Q04DX002 (ip), vehicle: saline with Tween-80) 100 % of control.

Regarding `C=CCN(CC=C)P(=O)(N(CC=C)CC=C)N1CC1`, the T/C is, setting by setting: (dose: 3.0 mg/kg/injection, schedule: Q01DX015 (ip), vehicle: saline) 151 % of control; (dose: 5.0 mg/kg/injection, schedule: Q01DX001 (ip), vehicle: saline) 117 % of control; (dose: 5.0 mg/kg/injection, schedule: Q01DX015 (ip), vehicle: saline) 155 % of control; (dose: 7.0 mg/kg/injection, schedule: Q01DX015 (ip), vehicle: saline) 173 % of control; (dose: 10.0 mg/kg/injection, schedule: Q01DX001 (ip), vehicle: saline) 117 % of control; (dose: 11.0 mg/kg/injection, schedule: Q01DX015 (ip), vehicle: saline) 178 % of control. Besides, the T/C under setting [4] is 175 % of control.

Turning to `N#Cc1ccc(-c2ccc(N)cc2)cc1`, the T/C is 88 % of control under setting [23]; 90 % of control under setting [24]; 88 % of control under setting [25]; 90 % of control (dose: 400.0 mg/kg/injection, schedule: Q01DX001 (ip), vehicle: carboxymethylcellulose (CMC)).
